These results are taken from PMC5880945, “D-Arg^0-Bradykinin-Arg-Arg, a Latent Vasoactive Bradykinin B2 Receptor Agonist Metabolically Activated by Carboxypeptidases” (Frontiers in Pharmacology, 2018).

The subject of assay [1] is GFP-tagged rabbit B2R (B2R-GFP). As to the kind of experiment: B2R-GFP endocytosis and recycling, epifluorescence microscopy, HEK 293 cells. Particulars: 30 min vs 3 h of stimulation. The format is cell-based.
For assay [2], the system named is anesthetized rats. The assay can be described thus: In vivo hemodynamics in anesthetized rats pretreated with icatibant or peptidase inhibitors. More on the design: species or system male Sprague-Dawley rats. The note with it: 1.6 μg/kg i.v.; for hypotensive response after Plummer’s inhibitor, in words: Dunnett’s P < 0.05 (r-BK-RR); for heart rate response after enalaprilat + Plummer’s inhibitor, in words / duration of hypotensive episode after enalaprilat + Plummer’s inhibitor, in words / hypotensive response after enalaprilat + Plummer’s inhibitor, in words: enalaprilat 0.1 mg/kg + Plummer’s inhibitor 0.75 mg/kg i.v. 15 min before; for duration of hypotensive episode after enalaprilat + Plummer’s inhibitor, in words / hypotensive response after enalaprilat + Plummer’s inhibitor, in words: Dunnett’s P < 0.01 (r-BK); for hypotensive response after enalaprilat + Plummer’s inhibitor, in words: P < 0.05 (r-BK-RR); for duration of hypotensive episode after enalaprilat, in words: Dunnett’s P < 0.001 (r-BK-RR); for duration of residual hypotensive episode after icatibant, in words / heart rate response after icatibant, in words / hypotensive response after icatibant, in words: icatibant 75 μg/kg i.v. 15 min before; for hypotensive response after icatibant, in words: Dunnett’s P < 0.001 (r-BK), P < 0.01 (r-BK-RR). The method, then:
(§1) All surgical and experimental procedures were reviewed and approved by the Animal Care and Handling Committee of Laval University, in accordance with the Canadian Council on Animal Care. Experiments were performed on male Sprague-Dawley rats (300–375 g) purchased from Charles River Laboratories (St-Constant, QC, Canada). The rats were housed in a light-controlled (12:12-h light-dark cycle (lights on at 0600)) and temperature-regulated room (22 ± 1°C). Animals had free access to normal chow diet and tap water. They were allowed to acclimate to their environmental conditions for 1 week prior to being studied. At the end of the acclimation period, the rats were anesthetised with sodium pentobarbital (50 mg kg^-1, i.p., supplemented as required) and had one catheter implanted into the right jugular vein [for intravenous (i.v.) injection] and one into the left femoral artery [for direct and continuous measurement of blood pressure and heart rate as previously described ([Jean et al., 2016])]. Experiments started at least 20 min following the end of surgery in anesthetised rats.
The mechanism subserving the cardiovascular responses to random i.v. injections of r-BK and r-BK-RR at the dose of 1.6 μg/kg, was evaluated in rats pretreated with specific antagonists. In these experiments, the rats were separated in four groups depending on the antagonist tested, and the cardiovascular responses to the peptides agonists were compared with those elicited in the untreated control group of rats. In the first group of treated rats, the long acting and selective B2R antagonist, icatibant (Hoe 140) (D-Arg-[Hyp^3, Thi^5, D-Tic^7, Oic^8]) bradykinin ([Hock et al., 1991]; [Wirth et al., 1991]; [Rhaleb et al., 1992]; [Marceau et al., 1994]) was intravenously administered as bolus (75 μg/kg, 0.1 ml) following a 10 min period of baseline measurements of heart rate and blood pressure. Fifteen minutes later, recording changes in blood pressure and heart rate elicited by i.v. injection of peptide vehicle (saline-BSA 0.1%) followed by random injections of r-BK and r-BK-RR, were made as described above. The next peptide was administered once all recorded cardiovascular parameters had returned to baseline after the previous injection. Further experiments were made in a second group of rats pretreated with the ACE inhibitor, enalaprilat. In these experiments, enalaprilat was intravenously administered as bolus ([…], 0.1 ml) 15 min before the i.v. injections of peptide vehicle and both customized peptides, as above. Further experiments were also carried out in rats pretreated with the Plummer’s inhibitor (mercaptomethyl-3-guanidinoethylthiopropanoic acid) a high affinity inhibitor of arginine carboxypeptidases that is an arginine analog ([Plummer and Ryan, 1981]). The inhibitor was intravenously administered as bolus (0.75 mg/kg, 0.1 ml) followed 15 min later by the i.v. injections of saline-BSA 0.1%, and then r-BK and -r-BK-RR (1.6 μg/kg) in random order. A fourth group of rats was pretreated with a combined i.v. injection of enalaprilat (0.1 mg/kg) and the Plummer’s inhibitor (0.75 mg/kg) 15 min before the randomized i.v. injections of both customized peptides, as above. The doses of different inhibitors were based on preliminary experiments and from previous studies performed by us and others ([Ishida et al., 1989]; [Wirth et al., 1991]; [Muto et al., 2003]; [Jean et al., 2016]). At the end of the experiments the rats were euthanized with an overdose of sodium pentobarbital (240 mg/kg, i.v.).
Results are presented as means ± SEM. Radioligand binding data were fitted by non-linear regression to a one-site competition equation using a least-square method (Prism 5.0, GraphPad Software Inc., San Diego, CA, United States) and IC50 values calculated from this procedure. […]

For assay [3], the system named is anesthetized rats. The assay can be described thus: In vivo hemodynamics in anesthetized rats, dose-response. More on the design: species or system male Sprague-Dawley rats. Particulars: for hypotensive potency, r-BK vs r-BK-RR, in words: i.v. bolus 0.025–12.8 μg/kg; for heart rate response, in words / peptide doses giving hypotensive response significantly greater than vehicle: i.v. bolus; for heart rate response, in words: after brief bradycardic injection artifact, statistically significant only at the highest tested doses; for peptide doses giving hypotensive response significantly greater than vehicle: vs BSA-saline vehicle (Dunnett’s test). As to the method:
as §1
Baseline measurements of heart rate and phasic and mean arterial blood pressure were recorded over a period of 15 min in anesthetized rats. A dose response curve was then obtained by recording changes in blood pressure and heart rate elicited by i.v. injection of peptide vehicle followed by increasing doses (0.025–12.8 μg/kg) of r-BK or r-BK-RR. Peptides were dissolved in isotonic saline (0.9% NaCl) containing 0.1% BSA to prevent the adsorption of peptide to the glassware and plastic surfaces. All i.v. injections were given as 100 μl boluses which were washed in with a further 100 μl of saline (the dead space of the catheter). Only one peptide was tested per group of rats and each injection started with saline-BSA 0.1% followed by the lowest dose of peptide. The next dose was administered once all recorded cardiovascular parameters had returned to baseline after the previous injection (usually 2–10 min). At the end of the experiments each animal was euthanized with an overdose of sodium pentobarbital (240 mg/kg, i.v.).
Results are presented as means ± SEM. Radioligand binding data were fitted by non-linear regression to a one-site competition equation using a least-square method (Prism 5.0, GraphPad Software Inc., San Diego, CA, United States) and IC50 values calculated from this procedure. The same computer program was used to draw concentration-effect curves generated with the contractility assay (least square fitting of sigmoidal dose-response equation with variable slope) and to derive contractile EC50 values. Data describing the dose-response relationship of novel peptides vs. hypotension and heart rate changes, the baseline values of heart rate and mean arterial blood pressure and the effect of drugs on the hemodynamic responses to r-B K and r-BK-RR were assessed by using one-way analysis of variance (ANOVA) followed by the Dunnett’s test (repeated comparison with a common control; Prism 5.0 software).

Where [4] appears, read: Plummer’s inhibitor 0.75 mg/kg i.v. 15 min before.
Setting [5] is: enalaprilat 0.1 mg/kg i.v. 15 min before.
The mark [6] stands for this setting: enalaprilat 0.1 mg/kg i.v. 15 min before, Dunnett’s P < 0.05 (r-BK).

Molecules are shown by their SMILES. Entries after “also recorded” stand apart in the source; their conditions may differ. Square brackets hold non-standard residues; d marks the D form. Peptide text beside a SMILES is read from it.

For the compound `N=C(N)NCCC[C@@H](N)C(=O)N[C@@H](CCCNC(=N)N)C(=O)N1CCC[C@H]1C(=O)N1CCC[C@H]1C(=O)NCC(=O)N[C@@H](Cc1ccccc1)C(=O)N[C@@H](CO)C(=O)N1CCC[C@H]1C(=O)N[C@@H](Cc1ccccc1)C(=O)N[C@@H](CCCNC(=N)N)C(=O)O` [r-BK, D-Arg^0-BK] (H-[dR]RPPGFSPFR-OH), the “persistence of B2R-GFP endocytosis, in words” value in assay [1] is listed as “reversible as a function of incubation time, as that of BK; also recorded: not more persistent”. In addition, in the assay with anesthetized rats [2] (setting [4]), the “heart rate (tachycardic) response after Plummer’s inhibitor, in words” value was “no effect” and the “hypotensive response after Plummer’s inhibitor, in words” value was “no effect”. In the assay on anesthetized rats [2], the “heart rate response after enalaprilat + Plummer’s inhibitor, in words” value is recorded as “not different from that seen in untreated rats”; the “duration of hypotensive episode after enalaprilat + Plummer’s inhibitor, in words” value is given as “significantly potentiated”; the “hypotensive response after enalaprilat + Plummer’s inhibitor, in words” value is on record as “significantly potentiated”; the “duration of residual hypotensive episode after icatibant, in words” value was “comparable to those seen in the untreated group”. Moreover, in the assay on anesthetized rats [2], the “heart rate response after icatibant, in words” value is “comparable to those seen in the untreated group” and the “hypotensive response after icatibant, in words” value is “significantly inhibited”. In the assay on anesthetized rats [2] (setting [5]), the “duration of hypotensive episode after enalaprilat, in words” value is “not different from that seen in untreated rats”. In the assay on anesthetized rats [2] (setting [6]), the “hypotensive response after enalaprilat, in words” value is listed as “significantly potentiated” and the “tachycardic response after enalaprilat, in words” value is reported as “significantly potentiated (P < 0.05, Dunnett’s test) as was the tachycardic response”. Besides, in the assay on anesthetized rats [3], the “hypotensive potency, r-BK vs r-BK-RR, in words” value is given as “virtually equipotent hypotensive agents”; the “heart rate response, in words” value is listed as “brief tachycardic response, statistically significant only at the highest tested doses”; the “peptide doses giving hypotensive response significantly greater than vehicle” value is at least 0.4 µg/kg.
As to `N=C(N)NCCC[C@@H](N)C(=O)N[C@@H](CCCNC(=N)N)C(=O)N1CCC[C@H]1C(=O)N1CCC[C@H]1C(=O)NCC(=O)N[C@@H](Cc1ccccc1)C(=O)N[C@@H](CO)C(=O)N1CCC[C@H]1C(=O)N[C@@H](Cc1ccccc1)C(=O)N[C@@H](CCCNC(=N)N)C(=O)N[C@@H](CCCNC(=N)N)C(=O)N[C@@H](CCCNC(=N)N)C(=O)O` [r-BK-RR, D-Arg^0-BK-Arg-Arg] (H-[dR]RPPGFSPFRRR-OH), in the assay on anesthetized rats [2] (setting [4]), the “duration of hypotensive episode after Plummer’s inhibitor, in words” value was “not different from those seen in untreated rats”; the “heart rate (tachycardic) response after Plummer’s inhibitor, in words” value is “not different from those seen in untreated rats”; the “hypotensive response after Plummer’s inhibitor, in words” value is “significantly reduce the hypotensive response”. Also, in the assay on anesthetized rats [2], the “heart rate response after enalaprilat + Plummer’s inhibitor, in words” value is on record as “not different from those seen in untreated rats”; the “duration of hypotensive episode after enalaprilat + Plummer’s inhibitor, in words” value is “not different from those seen in untreated rats”; the “hypotensive response after enalaprilat + Plummer’s inhibitor, in words” value is listed as “significantly reduce the hypotensive response”; the “duration of residual hypotensive episode after icatibant, in words” value is given as “not different from those of controls”. Besides, in the assay with anesthetized rats [2], the “heart rate response after icatibant, in words” value was “not different from those of controls” and the “hypotensive response after icatibant, in words” value was “strongly reduce the hypotensive response”. Further, the “duration of hypotensive episode after enalaprilat, in words” value with anesthetized rats [2] (setting [5]) is given as “significantly increase the duration of the hypotensive episode”. In addition, the “hypotensive response after enalaprilat, in words” value in the assay on anesthetized rats [2] (setting [6]) is “no significant effect on the hypotensive response”. Also, in the assay on anesthetized rats [3], the “hypotensive potency, r-BK vs r-BK-RR, in words” value is reported as “virtually equipotent hypotensive agents”; the “heart rate response, in words” value was “brief tachycardic response, statistically significant only at the highest tested doses”; the “peptide doses giving hypotensive response significantly greater than vehicle” value is at least 0.4 µg/kg.
